Patent US20120129763A1, “NOVEL SEMI-SYNTHETIC GLYCOPEPTIDES AS ANTIBACTERIAL AGENTS” (BIOMARIN PHARMACEUTICAL INC., priority 2007, published 2012)
In brackets after ≈: the same amount, converted by molar mass.

Assays:
Type in all cases: cell-based
Details in all cases: clinical isolate, Mueller-Hinton broth
[1] = tested on: Enterococcus faecalis 101 (vancomycin sensitive); test: Broth microdilution MIC, EFC 101
Procedure: (§1) Antibacterial activity in vitro is investigated by broth microdilution method in Meuller-Hinton broth as recommended by NCCLS. All strains tested are clinical isolates either sensitive or resistant to natural glycopeptides. MIC values were determined using the CLSI-recommended broth microdilution procedure (Clinical and Laboratory Standards Institute, Methods for Dilution Antimicrobial Susceptibility Tests for Bacteria That Grow Aerobically; Approved Standard-Seventh Edition). Automated liquid handlers (Multidrop 384, Labsystems, Helsinki, Finland; Biomek 2000 and Multimek 96, Beckman Coulter, Fullerton Calif.) were used to conduct serial dilutions and liquid transfers.

[2] = tested on: Streptococcus pyogenes 712 (penicillin sensitive); test: Broth microdilution MIC, SPYO 712
Procedure: as §1

[3] = tested on: Staphylococcus epidermidis 831 (MRSE); test: Broth microdilution MIC, SE 831; parameters: unit not given beside the values
Procedure: as §1

[4] = tested on: Enterococcus faecium 750 (vancomycin sensitive); test: Broth microdilution MIC, EFCM 750
Procedure: as §1

[5] = tested on: Streptococcus pneumoniae 1195 (penicillin sensitive); test: Broth microdilution MIC, SPNE 1195
Procedure: as §1

[6] = tested on: Staphylococcus aureus 2012 (VISA); test: Broth microdilution MIC, SA 2012
Procedure: as §1

[7] = tested on: Enterococcus faecium 752 (VRE); test: Broth microdilution MIC, EFCM 752
Procedure: as §1

[8] = tested on: Staphylococcus aureus 757 (MRSA); test: Broth microdilution MIC, SA 757
Procedure: as §1

[9] = tested on: Staphylococcus aureus 100 (MSSA); test: Broth microdilution MIC, SA 100
Procedure: as §1

[10] = tested on: Enterococcus faecalis 848 (VRE); test: Broth microdilution MIC, EFC 848
Procedure: as §1

[11] = tested on: Staphylococcus epidermidis 835 (MSSE); test: Broth microdilution MIC, SE 835; parameters: unit not given beside the values
Procedure: as §1

MIC, E FC 101 [1] [µg/mL] | MIC, S PYO 712 [2] [µg/mL] | MIC, SE 831 [3] | MIC, E FCM 750 [4] [µg/mL] | MIC, S PNE 1195 [5] [µg/mL] | MIC, SA 2012 [6] [µg/mL] | MIC, E FCM 752 [7] [µg/mL] | MIC, SA 757 [8] [µg/mL] | MIC, SA 100 [9] [µg/mL] | MIC, E FC 848 [10] [µg/mL] | MIC, SE 835 [11] | Structure (SMILES)
1 (≈ 0.627 µM) | 0.12 (≈ 0.0753 µM) | 0.5 | 0.5 (≈ 0.314 µM) | 0.12 (≈ 0.0753 µM) | 1 (≈ 0.627 µM) | 2 (≈ 1.25 µM) | 1 (≈ 0.627 µM) | 2 (≈ 1.25 µM) | 2 (≈ 1.25 µM) | 1 | CCCCCCCCNC(=O)NC(=O)C[C@@H]1NC(=O)[C@H](NC(=O)[C@@H](CC(C)C)NC)[C@H](O)c2ccc(c(Cl)c2)Oc2cc3cc(c2OC2OC(CO)C(O)C(O)C2O)Oc2ccc(cc2Cl)[C@@H](O)[C@H]2NC(=O)[C@H](NC(=O)[C@@H]3NC1=O)c1ccc(O)c(c1)-c1c(O)cc(O)cc1[C@@H](C(=O)NC1C3CC4CC(C3)CC1C4)NC2=O (stereo partly drawn) [Compound 29]
2 (≈ 1.15 µM) | 0.25 (≈ 0.144 µM) | 1 | 0.5 (≈ 0.288 µM) | 1 (≈ 0.577 µM) | 4 (≈ 2.31 µM) | 2 (≈ 1.15 µM) | 2 (≈ 1.15 µM) | 4 (≈ 2.31 µM) | 2 (≈ 1.15 µM) | 2 | CN[C@H](CC(C)C)C(=O)N[C@H]1C(=O)N[C@@H](CC(=O)NC(=O)N[C@@H](C)c2ccccc2)C(=O)N[C@H]2C(=O)N[C@@H]3C(=O)N[C@H](C(=O)N[C@H](C(=O)NC4C5CC6CC(C5)CC4C6)c4cc(O)cc(O)c4-c4cc3ccc4O)[C@H](O)c3ccc(c(Cl)c3)Oc3cc2cc(c3OC2O[C@H](COC(=O)N[C@@H](C)c3ccccc3)[C@@H](O)[C@H](O)[C@H]2O)Oc2ccc(cc2Cl)[C@H]1O (stereo partly drawn) [Compound 75]
2 (≈ 1.26 µM) | 0.06 (≈ 0.0378 µM) | 1 | 0.5 (≈ 0.315 µM) | 0.25 (≈ 0.158 µM) | 4 (≈ 2.52 µM) | 8 (≈ 5.04 µM) | 2 (≈ 1.26 µM) | 2 (≈ 1.26 µM) | 8 (≈ 5.04 µM) | 1 | CN[C@H](CC(C)C)C(=O)N[C@H]1C(=O)N[C@@H](CC(=O)NC(=O)N[C@@H](C)c2ccccc2)C(=O)N[C@H]2C(=O)N[C@@H]3C(=O)N[C@H](C(=O)N[C@H](C(=O)NC4C5CC6CC(C5)CC4C6)c4cc(O)cc(O)c4-c4cc3ccc4O)[C@H](O)c3ccc(c(Cl)c3)Oc3cc2cc(c3OC2O[C@H](CO)[C@@H](O)[C@H](O)[C@H]2O)Oc2ccc(cc2Cl)[C@H]1O (stereo partly drawn) [Compound 76]
